Columns and labels:
[1] = Example 7: photographic speed and fog with/without HB3, 365 nm exposure, emulsion T-2; conditions: emulsions containing red or blue sensitizing dye and electron donor
Description: (§1) For photographic evaluation, each of the coating strips was exposed for 0.1 sec to a 365 nm emission line of a Hg lamp filtered through a Kodak Wratten filter number 18A and a step wedge ranging in density from 0 to 4 density units in 0.2 density steps. The exposed film strips were developed for 6 min in Kodak Rapid X-ray Developer (KRX). S365, relative sensitivity at 365 nm, was evaluated at a density of 0.2 units above fog.
An AgBrI tabular silver halide emulsion (Emulsion T-2) was prepared containing 4.05% total I distributed such that the central portion of the emulsion grains contained 1.5% I and the perimeter area contained substantially higher I, as described by Chang et. al., U.S. Pat. No. 5,314,793. […] This emulsion was precipitated using deionized gelatin. The emulsion was sulfur sensitized by adding 8.5×10^-6 mole 1,3-dicarboxymethyl-1,3-dimethyl-2-thiourea /mole Ag at 40° C.; the temperature was then raised to 60° C. at a rate of 5° C./3 min and the emulsions held for 20 min before cooling to 40° C. The chemically sensitized emulsion was then used to prepare coatings containing the fragmentable two-electron donor compounds. […] Where present, the blue sensitizing dye D-I or the red sensitizing dye D-II were added from methanol solution to the emulsion at 40° C. after the chemical sensitization and disulfocatechol addition. The fragmentable two-electron donor compounds were added to the emulsion at 40° C. and the coatings were prepared and tested as described in Example 1, except that the additional gelatin used to prepare the coatings described in Table III was deionized gelatin.
Where present the blue sensitizing dye D-I or the red sensitizing dye D-II were added from methanol solution to the emulsion at 40° C. after the chemical sensitization and disulfocatechol addition. The fragmentable two-electron donating compounds were then added to the emulsion and coatings prepared as described in Example 1, except that the additional gelatin used to prepare the coatings described in Table VII was deionized gelatin. The coatings were tested for their response to a 365 nm exposure as described in Example 1.

[2] = oxidation potential E1 by cyclic voltammetry; type: physicochemical; conditions: Table A; 80%/20% acetonitrile/water, 0.1M lithium perchlorate, 25° C.
Description: Oxidation potentials are well known and can be found, for example, in "Encyclopedia of Electrochemistry of the Elements", Organic Section, Volumes XI-XV, A. Bard and H. Lund (Editors) Marcel Dekker Inc., NY. (1984). E1 can be measured by the technique of cyclic voltammetry. In this technique, the electron donating compound is dissolved in a solution of 80%/20% by volume acetonitrile to water containing 0.1M lithium perchlorate. Oxygen is removed from the solution by passing nitrogen gas through the solution for 10 minutes prior to measurement. A glassy carbon disk is used for the working electrode, a platinum wire is used for the counter electrode, and a saturated calomel electrode (SCE) is used for the reference electrode. Measurement is conducted at 25° C. using a potential sweep rate of 0.1 V/sec. The oxidation potential vs. SCE is taken as the peak potential of the cyclic voltammetric wave.

[3] = fragmentation rate constant kfr by laser flash photolysis; type: physicochemical; conditions: Table B; CH3CN/H2O (4:1)
Description: The kinetics of the bond cleavage or fragmentation reaction can be measured by conventional laser flash photolysis. […] The specific experimental apparatus we used to measure fragmentation rate constants and radical oxidation potentials is described in detail below.
(b) Fragmentation Rate Constant Determination
These absorptions were used to determine the kinetics of the fragmentation reactions of the radical cations of the X-Y. Excitation of 9,10-dicyanoanthracene (DCA) in the presence of biphenyl and the X-Y donor, as described above, results in the formation of the DCA^.cndot.- and the X-Y^.cndot.+. By using a concentration of X-Y of ca. 10^-2 M, the X-Y^.cndot.+ can be formed within ca. 20 ns of the laser pulse. […] The monitoring wavelengths used were somewhat different for the different donors, but were mostly around 470-530 nm. […] Alternatively, when the decay rate of the X-Y^.cndot.+ was less than 10^6 s^-1, the solutions were purged with oxygen.
The experiments measuring the fragmentation rate constants were performed in acetonitrile with the addition of 20% water, so that all of the salts could be easily solubilized. Most experiments were performed at room temperature. […] When this happened, the fragmentation rate constants were measured as a function of temperature, and the rate constant at room temperature determined by extrapolation.

[4] = oxidation potential E2 of radical X by laser flash photolysis; type: physicochemical; conditions: Table C; by parent XY compound; < = more negative than
Description: In this technique, the compound X-Y is oxidized by an electron transfer reaction initiated by a short laser pulse. The oxidized form of X-Y then undergoes the bond cleavage reaction to give the radical X^.cndot.. X^.cndot. is then allowed to interact with various electron acceptor compounds of known reduction potential. […] The experimental details are set forth more fully below. The oxidation potentials (E2) for radicals X^.cndot. for typical compounds useful in accordance with our invention are given in Table C. Where only limits on potentials could be determined, the following notation is used: <-0.90 V should be read as "more negative than -0.90 V" and >-0.40 V should be read as "less negative than -0.40 V".
(a) Oxidation Potential of Radical X.cndot.
The laser flash photolysis measurements were performed using a nanosecond pulsed excimer (Questek model 2620, 308 nm, ca. 20 ns, ca. 100 mJ) pumped dye laser (Lambda Physik model FL 3002). The laser dye was DPS (commercially available from Exciton Co.) in p-dioxane (410 nm, ca. 20 ns, ca. 10 mJ). The analyzing light source was a pulsed 150W xenon arc lamp (Osram XBO 150/W). The arc lamp power supply was a PRA model 302 and the pulser was a PRA model M-306. The pulser increased the light output by ca. 100 fold, for a time period of ca. 2-3 ms. The analyzing light was focussed through a small aperture (ca. 1.5 mm) in a cell holder designed to hold 1 cm^2 cuvettes. The laser and analyzing beams irradiated the cell from opposite directions and crossed at a narrow angle (ca. 15°). After leaving the cell, the analyzing light was collimated and focussed onto the slit (1 mm, 4 nm bandpass) of an ISA H-20 monochromator. The light was detected using 5 dynodes of a Hamamatsu model R446 photomultiplier. The output of the photomultiplier tube was terminated into 50 ohm, and captured using a Tektronix DSA-602 digital oscilloscope. The entire experiment is controlled from a personal computer.
The experiments were performed either in acetonitrile, or a mixture of 80% acetonitrile and 20% water. The first singlet excited state of a cyanoanthracene (A), which acted as the electron acceptor, was produced using the nanosecond laser pulse at 410 nm. […] Secondary electron transfer then occurred between B^.cndot.+ and the lower oxidation potential electron donor X-Y, to generate X-Y^.cndot.+ in high yield. For the investigations of the oxidation potentials of the radicals X^.cndot., typically the cyanoanthrancene concentration was ca. 2×10^-5 M to 10^-4 M the biphenyl concentration was ca. 0.1M. The concentration of the X-Y donor was ca. 10^-3 M. The rates of the electron transfer reactions are determined by the concentrations of the substrates. The concentrations used ensured that the A^.cndot.- and the X-Y^.cndot.+ were generated within 100 ns of the laser pulse. The radical ions could be observed directly by means of their visible absorption spectra. The kinetics of the photogenerated radical ions were monitored by observation of the changes in optical density at the appropriate wavelengths.
The reduction potential (Ered) of 9,10-dicyanoanthracene (DCA) is -0.91 V. In a typical experiment, DCA is excited and the initial photo-induced electron transfer from the biphenyl (B) to the DCA forms a DCA^.cndot.-, which is observed at its characteristic absorption maximum (λobs =705 nm), within ca. 20 ns of the laser pulse. Rapid secondary electron transfer occurs from X-Y to B^.cndot.+ to generate X-Y^.cndot.+, which fragments to give X^.cndot.. A growth in absorption is then observed at 705 nm with a time constant of ca. 1 microsecond, due to reduction of a second DCA by the X^.cndot.. The absorption signal with the microsecond growth time is equal to the size of the absorption signal formed within 20 ns.
If the oxidation potential of X^.cndot. is not sufficiently negative to reduce DCA, an estimate of its oxidation potential was obtained by using other cyanoanthracenes as acceptors. […]

[5] = Example 9: photographic speed and fog, 365 nm exposure, red dyed emulsion T-2; conditions: for Fog / S365: dye II 0.86 x10^-3; for S365: undyed control=100, dyed control 62
Description: as §1
An AgBrI tabular silver halide emulsion (Emulsion T-2) was prepared containing 4.05% total I distributed such that the central portion of the emulsion grains contained 1.5% I and the perimeter area contained substantially higher I, as described by Chang et. al., U.S. Pat. No. 5,314,793. […] This emulsion was precipitated using deionized gelatin. The emulsion was sulfur sensitized by adding 8.5×10^-6 mole 1,3-dicarboxymethyl-1,3-dimethyl-2-thiourea /mole Ag at 40° C.; the temperature was then raised to 60° C. at a rate of 5° C./3 min and the emulsions held for 20 min before cooling to 40° C. The chemically sensitized emulsion was then used to prepare coatings containing the fragmentable two-electron donor compounds. All of the experimental coating variations in Table III contained the hydroxybenzene 2,4-disulfocatechol (HB3) at a concentration of 13 mmole/ mole Ag, added to the melt before the addition of any further addenda. Where present, the blue sensitizing dye D-I or the red sensitizing dye D-II were added from methanol solution to the emulsion at 40° C. after the chemical sensitization and disulfocatechol addition. The fragmentable two-electron donor compounds were added to the emulsion at 40° C. and the coatings were prepared and tested as described in Example 1, except that the additional gelatin used to prepare the coatings described in Table III was deionized gelatin.
The sulfur sensitized AgBrI tabular emulsion T-2 as described in Example 3 was used to prepare coatings of the fragmentable two-electron donors S-15, S-14, S-13, and S-11, as described in Table IX. All of the experimental coating variations in Table IX contained the hydroxybenzene, 2,4-disulfocatechcol (HB3) at a concentration of 13 mmole/mole Ag, added to the melt before any further addenda. Where present, the red sensitizing dye D-II was added from methanol solution to the emulsion at 40° C. after the chemical sensitization and disulfocatechol addition. The fragmentable two-electron donor compounds were then added to the emulsion and coatings prepared and tested as described in Example I, except that the additional gelatin used to prepare the coatings described in Table IX was deionized gelatin.

Row | Compound | Oxidation Potential of X--Y, E1 [2] [V vs SCE] | kfr, Rate Constants for Decarboxylation of Radical Cations [3] | Oxidation Potentials of Radicals (X*), E2 [4] | also measured
1 | O=S(=O)(O)c1cc(O)c(O)c(S(=O)(=O)O)c1 [HB3, 2,4-disulfocatechol, reference compound] | – | – | – | effect on fog [1]: the level of fog can be lowered
2 | CCCCN(c1ccc(OC)cc1)C(C)C(=O)O (stereo not drawn) [Compound 36] | 0.22 | 1.1e+06 s⁻¹ | < -0.9 V | –
3 | COc1ccc(N(CC(=O)O)CC(=O)O)cc1 [Compound 10] | 0.38 | 9300 s⁻¹ | < -0.9 V | –
4 | Cc1ccc(NC(C)C(=O)O)cc1 (stereo not drawn) [Compound 54] | 0.44 | 1.4e+07 s⁻¹ | < -0.9 V | –
5 | COc1ccc(N(CC(=O)O)C(C)C(=O)O)cc1 (stereo not drawn) [Compound 15] | 0.36 | 90000 s⁻¹ | < -0.9 V | –
6 | CC(C(=O)O)N1c2ccccc2Sc2ccccc21 (stereo not drawn) [Compound 57] | 0.49 | ca. 1 × 10^5 s^-1 | < -0.9 V | –
7 | Cc1ccc(N(CC(=O)O)C(C)C(=O)O)cc1 (stereo not drawn) [Compound 20] | 0.46 | 8.1e+06 s⁻¹ | < -0.9 V | –
8 | Cn1cc(C(C)(C)C(=O)O)c2ccccc21 [Compound 44] | 0.64 | 530000 s⁻¹ | -0.81 V | –
9 | O=C(O)CN(CC(=O)O)c1ccccc1 [Compound 13] | 0.54 | 1.7e+07 s⁻¹ | ~ -0.85 V | –
10 | Cc1ccc(N(CC(=O)O)CC(=O)O)cc1 [Compound 11] | 0.46 | 1.6e+06 s⁻¹ | ~ -0.9 V | –
11 | N-(4-Carboxyethylphenyl)-N-(2-thioethyl-ethyl)alanine sodium salt [Compound S-15] | – | – | – | Fog ([5]; 0.007 x10^-3 mol/mol Ag): 0.13; S365 ([5]; 0.007 x10^-3 mol/mol Ag): 95; Fog ([5]; 0.022 x10^-3 mol/mol Ag): 0.23; S365 ([5]; 0.022 x10^-3 mol/mol Ag): 105; 365 nm sensitivity of dyed emulsion ([5]; dye D-II): restored to that of the undyed emulsion
